Experimental data: patent publication US20220089541A1, “Compounds for the Treatment of Kinase-Dependent Disorders” (Exelixis, Inc., priority 2019, published 2022)

Key:
KDR = target: T1, KDR (Homo sapiens, UniProt P35968); test: KDR autophosphorylation ELISA in HUVEC cells; type: cell-based; conditions: VEGF165-stimulated, phospho-KDR ELISA, 1 h compound incubation
T1 construct: host or cells: HUVEC (human umbilical vein endothelial cells)
Experimental: Example C: KDR Autophosphorylation ELISA in HUVEC Cells
umbilical vein endothelial cells or HUVEC (Lonza #C2519A) were seeded at 2×10^4 cells/well onto 96-well plates (Corning #3904), in EGM-2 growth medium (Lonza #CC-3162) containing 1% Penicillin Streptomycin (Thermo Fisher #15140-122). HUVEC cells were incubated at 37° C., 5% CO2 for 24 h and then starved for 24 h in serum-free EBM-2 basal medium (Lonza #CC-3156) containing 1% Penicillin Streptomycin. Test compounds were serially diluted to produce an 8-point dose curve in fresh serum-free medium to a final concentration of 0.3% DMSO (vehicle) and added to the cells and incubated for 1 h. Cells were then stimulated with 100 ng/mL recombinant human VEGF165 (R&D Systems #293-VE-500) for 5 min, washed with cold PBS, and immediately lysed with 130 μL of cold IX lysis buffer [20 mM Tris, 137 mM sodium chloride, 2 mM EDTA, 10% glycerol, 1% NP-40 alternative, 1 mM activated sodium orthovanadate, 1 mM PefaBloc SC (Sigma-Aldrich #11429868001), protease/phosphatase inhibitor tablet (Thermo Fisher #A32959)]. Lysates were collected and 100 μL/well added into the human phospho-KDR DuoSet IC ELISA (R&D Systems #DYC 1766-2). Assay was performed according to manufacturer's instructions and sample phospho-KDR concentrations were extrapolated using human phospho-KDR control (R&D Systems #841421) as a standard. Positive control wells (100% activity) contained VEGF165-stimulated, DMSO-treated cell lysates. Negative control wells (0% activity) contained non-stimulated cell lysates. IC50 values were calculated by nonlinear regression analysis using a 4-parameter logistic curve fit in ActivityBase XE (IDBS).

Met = target: T2, Met (Homo sapiens, UniProt P08581); test: Met autophosphorylation ELISA in PC-3 cells; type: cell-based; conditions: PC-3 prostate cancer cells, HGF-stimulated, phospho-Met ELISA, 1 h compound incubation; read-out: c-Met IC50
T2 construct: host or cells: PC-3 prostate cancer cells
T2 sequence (P08581 25-1390): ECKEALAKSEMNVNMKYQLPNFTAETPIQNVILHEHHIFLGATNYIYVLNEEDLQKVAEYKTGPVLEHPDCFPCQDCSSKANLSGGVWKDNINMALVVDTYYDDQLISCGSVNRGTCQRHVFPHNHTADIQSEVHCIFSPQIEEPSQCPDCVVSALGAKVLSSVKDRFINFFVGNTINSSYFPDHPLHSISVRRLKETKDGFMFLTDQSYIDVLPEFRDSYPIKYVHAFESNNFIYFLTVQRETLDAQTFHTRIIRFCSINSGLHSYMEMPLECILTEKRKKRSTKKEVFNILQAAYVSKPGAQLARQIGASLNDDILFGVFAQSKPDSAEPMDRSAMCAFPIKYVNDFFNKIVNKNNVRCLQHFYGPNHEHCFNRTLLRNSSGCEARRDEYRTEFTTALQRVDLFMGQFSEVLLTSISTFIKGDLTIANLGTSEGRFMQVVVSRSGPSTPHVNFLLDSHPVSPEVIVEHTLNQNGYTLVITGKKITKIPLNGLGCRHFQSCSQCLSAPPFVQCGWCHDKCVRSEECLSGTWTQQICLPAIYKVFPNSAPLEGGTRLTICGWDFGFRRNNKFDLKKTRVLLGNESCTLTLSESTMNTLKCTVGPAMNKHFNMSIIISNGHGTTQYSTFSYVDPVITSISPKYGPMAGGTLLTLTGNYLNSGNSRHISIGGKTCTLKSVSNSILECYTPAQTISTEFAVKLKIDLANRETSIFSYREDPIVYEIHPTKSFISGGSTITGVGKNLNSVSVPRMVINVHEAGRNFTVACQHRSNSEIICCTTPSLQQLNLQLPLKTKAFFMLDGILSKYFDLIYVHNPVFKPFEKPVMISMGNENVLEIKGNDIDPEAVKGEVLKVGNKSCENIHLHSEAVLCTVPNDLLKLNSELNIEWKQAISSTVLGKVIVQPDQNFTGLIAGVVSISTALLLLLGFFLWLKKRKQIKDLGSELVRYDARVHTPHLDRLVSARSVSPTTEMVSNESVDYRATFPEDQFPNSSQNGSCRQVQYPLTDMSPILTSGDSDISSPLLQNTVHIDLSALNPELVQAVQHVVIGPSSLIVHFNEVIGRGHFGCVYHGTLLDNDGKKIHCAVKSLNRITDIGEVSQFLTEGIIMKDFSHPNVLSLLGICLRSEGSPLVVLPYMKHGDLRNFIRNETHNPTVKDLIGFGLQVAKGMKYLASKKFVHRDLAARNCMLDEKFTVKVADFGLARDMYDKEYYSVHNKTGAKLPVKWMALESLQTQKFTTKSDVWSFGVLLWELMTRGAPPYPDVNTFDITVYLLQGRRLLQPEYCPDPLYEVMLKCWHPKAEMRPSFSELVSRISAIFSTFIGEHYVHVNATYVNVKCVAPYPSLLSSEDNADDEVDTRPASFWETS
Experimental: Example B: Met Autophosphorylation ELISA in PC-3 Cells
PC-3 prostate cancer cells (ATCC #CRL-1435) were seeded at 4×10^4 cells/well onto 24-well plates (Greiner #662165), in DMEM (Thermo Fisher #11995-040) containing 10% FBS (Thermo Fisher #26140-079), 1% MEM NEAA (Thermo Fisher #11140-050), 1% GlutaMax (Thermo Fisher #35050-061), and 1% Penicillin Streptomycin (Thermo Fisher #15140-122). PC-3 cells were incubated at 37° C., 5% CO2 for 24 h and then starved for 3 h in serum-free medium. Test compounds were serially diluted to produce an 8-point dose curve in fresh serum-free medium to a final concentration of 0.3% DMSO (vehicle) and added to the cells and incubated for 1 h. Cells were then stimulated with 100 ng/mL recombinant human HGF (R&D Systems #294-HG-250) for 10 min, washed with cold PBS, and immediately lysed with 130 μL of cold IX lysis buffer [20 mM Tris, 137 mM sodium chloride, 2 mM EDTA, 10% glycerol, 1% NP-40 alternative, 1 mM activated sodium orthovanadate, 1 mM PefaBloc SC (Sigma-Aldrich #11429868001), protease/phosphatase inhibitor tablet (Thermo Fisher #A32959)]. Lysates were clarified by centrifugation and 100 μL/well added into the PathScan phospho-Met (panTyr) Sandwich ELISA (Cell Signaling Technology #7333). Assay was performed according to manufacturer's instructions. Positive control wells (100% activity) contained HGF-stimulated, DMSO-treated cell lysates. Negative control wells (0% activity) contained HGF-stimulated, reference inhibitor-treated cell lysates. IC50 values were calculated by nonlinear regression analysis using a 4-parameter logistic curve fit in ActivityBase XE (IDBS).

T1 sequence (P35968 20-1356): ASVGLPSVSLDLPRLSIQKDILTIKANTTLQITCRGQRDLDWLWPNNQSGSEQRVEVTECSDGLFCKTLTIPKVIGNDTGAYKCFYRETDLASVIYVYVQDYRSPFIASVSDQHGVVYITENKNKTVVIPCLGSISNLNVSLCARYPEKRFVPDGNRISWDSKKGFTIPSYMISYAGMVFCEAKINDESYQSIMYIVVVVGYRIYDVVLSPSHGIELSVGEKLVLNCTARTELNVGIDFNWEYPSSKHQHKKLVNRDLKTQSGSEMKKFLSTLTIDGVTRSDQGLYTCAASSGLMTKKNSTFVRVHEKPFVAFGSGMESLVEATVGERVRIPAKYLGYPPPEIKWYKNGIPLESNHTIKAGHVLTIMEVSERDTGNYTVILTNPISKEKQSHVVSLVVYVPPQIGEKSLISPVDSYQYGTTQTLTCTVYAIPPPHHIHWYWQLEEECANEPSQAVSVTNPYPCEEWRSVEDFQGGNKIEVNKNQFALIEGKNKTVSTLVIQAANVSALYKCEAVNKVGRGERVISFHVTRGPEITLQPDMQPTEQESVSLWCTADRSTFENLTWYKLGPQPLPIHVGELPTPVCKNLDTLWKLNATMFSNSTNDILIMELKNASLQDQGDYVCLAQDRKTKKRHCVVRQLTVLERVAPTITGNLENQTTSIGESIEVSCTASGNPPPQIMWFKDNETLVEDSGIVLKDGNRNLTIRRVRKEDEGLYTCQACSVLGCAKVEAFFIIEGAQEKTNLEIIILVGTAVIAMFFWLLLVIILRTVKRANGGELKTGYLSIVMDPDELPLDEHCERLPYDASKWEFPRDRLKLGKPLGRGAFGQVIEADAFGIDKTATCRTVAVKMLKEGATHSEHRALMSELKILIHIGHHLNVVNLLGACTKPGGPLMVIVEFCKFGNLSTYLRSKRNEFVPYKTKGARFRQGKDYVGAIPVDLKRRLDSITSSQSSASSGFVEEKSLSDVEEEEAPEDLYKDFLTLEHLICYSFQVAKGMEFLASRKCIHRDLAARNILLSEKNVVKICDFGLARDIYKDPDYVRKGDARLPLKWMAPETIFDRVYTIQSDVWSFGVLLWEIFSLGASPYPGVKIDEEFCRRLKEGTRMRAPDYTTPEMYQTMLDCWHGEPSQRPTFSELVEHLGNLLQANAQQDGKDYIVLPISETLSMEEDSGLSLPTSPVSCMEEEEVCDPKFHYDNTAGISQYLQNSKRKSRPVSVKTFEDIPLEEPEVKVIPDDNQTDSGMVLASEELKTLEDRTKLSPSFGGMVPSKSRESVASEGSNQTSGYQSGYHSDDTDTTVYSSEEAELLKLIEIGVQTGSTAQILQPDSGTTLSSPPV

Row | Structure (SMILES) | IC50 (KDR) [nM] | IC50 (Met) [nM]
1 | COc1cc2nccc(Oc3ccc(NC(=O)C4(C(=O)N(C)c5ccc(F)cc5)CC4)cc3)c2cc1OC [Compound 9, 1-N-[4-(6,7-Dimethoxyquinolin-4-yl)oxyphenyl]-1-N′-(4-fluorophenyl)-1-N′-methylcyclopropane-1,1-dicarboxamide] | > 300 | > 300
2 | COc1cc2nccc(Oc3ccc(NC(=O)C4(C(=O)N(C)c5ccc(F)cc5)CC4)cc3F)c2cc1OC [Compound 10, N-(4-((6,7-Dimethoxyquinolin-4-yl)oxy)-3-fluorophenyl)-N-(4-fluorophenyl)-N-methylcyclopropane-1,1-dicarboxamide] | > 300 | > 300
3 | CNC(=O)c1cc2c(Oc3ncc(NC(=O)C4(C(=O)N(C)c5ccc(F)cc5)CC4)cc3F)ccnc2cc1OC [Compound 34, 1-N-[5-Fluoro-6-[7-methoxy-6-(methylcarbamoyl)quinolin-4-yl]oxypyridin-3-yl]-1-N′-(4-fluorophenyl)-1-N′-methylcyclopropane-1,1-dicarboxamide] | > 300 | > 300
4 | COc1cc2nccc(Oc3ncc(NC(=O)C4(C(=O)N(C)c5ccc(F)cc5)CC4)cc3F)c2cc1C(N)=O [Compound 35, 1-N-[6-(6-Carbamoyl-7-methoxyquinolin-4-yl)oxy-5-fluoropyridin-3-yl]-1-N′-(4-fluorophenyl)-1-N′-methylcyclopropane-1,1-dicarboxamide] | > 300 | > 300
5 | COc1cc2nccc(Oc3ccc(N(C)C(=O)C4(C(=O)Nc5ccc(F)cc5)CC4)cc3F)c2cc1OC [Compound 51, 1-N′-[4-(6,7-Dimethoxyquinolin-4-yl)oxy-3-fluorophenyl]-1-N-(4-fluorophenyl)-1-N′-methylcyclopropane-1,1-dicarboxamide] |  | > 300
